Paper PMC11941939, “Tackling Prostate Cancer with Theranostic E5B9-Bombesin Target Modules (TMs): From Imaging to Treatment with UniCAR T-Cells” (International Journal of Molecular Sciences, 2025)
Where two headings read alike, the source gives them in different places. Starred links: 1 amine or outer side, 2 acyl side, 3 side chain; linkers in the order of their positions; H or OH if unused. Positions of bridges follow the written chain, without caps; N, C: chain ends. Non-standard residues stand in square brackets, D forms with d. Residues, ends and D or L forms follow the SMILES beside them. Chains are numbered I, II in the order given. *: point of attachment. NOTA(2S-Bn(4-NHCS)) = O=C(O)CN1CCN(CC(=O)O)C[C@H](Cc2ccc(NC(=S)*)cc2)N(CC(=O)O)CC1; X1 = O=C([C@H](CCCCn1nnc2c1-c1ccccc1CN([*:3])c1ccccc1-2)N[*:1])[*:2]; X2 = O=C(CCOCCOCCOCCOCCNC(=O)CCN1C(=O)CC([*:1])C1=O)NCCC(=O)[*:2]; γ4hIle = CC[C@H](C)[C@@H](CCC(=O)[*:2])N[*:1]; Tle = CC(C)(C)[C@H](N)C(=O)O; Ava = NCCCCC(=O)O; Sar = CNCC(=O)O

How the values were obtained:
GRPR = target: T1, GRPR (Homo sapiens, UniProt P30550); experiment: Competitive binding assay against 125I-Tyr4-bombesin in PC3 cells
T1 construct: Both cell lines express GRPR; endogenous in cells; host or cells: PC-3 cells (dimeric TM also tested in LNCaP cells)
Method: Then, ^125I-Tyr^4-BBN (0.05 nM final concentration) was added to each well, and the plates were incubated for 2 h at 4 °C. The cells were then rinsed twice with ice-cold phosphate-buffered saline (PBS) and harvested. The cells were placed on a Packard II gamma counter (PerkinElmer, Boston, MA, USA) to determine the cell-associated radioactivity. After decay correction, data were plotted using GraphPad Prism 9 Software (San Diego, CA, USA) using the sigmoidal dose–response equation, with counts per minute (cpm) of radioactivity bound versus the log of the concentration of NOTA-E5B9-BBN2 monomeric or dimeric TM for the determination of IC50 values. NOTA-E5B9-BBN2 dimeric TM was also tested in LNCaP cells. Gastrin-releasing peptide (GRP) served as the control.

PC3 cancer cells = type: cell-based, human; details: 48 h
Method: (§1) Standard chromium (^51Cr)-release cytotoxicity assays were performed to assess the killing of tumor cells by redirected UniCAR T-cells as previously described. Briefly, chromium-labeled target cells were incubated for 48 h with UniCAR T-cells at an effector-to-target cell (E:T) ratio of 5:1 in the absence or presence of different TM concentrations. The radioactive signal in the supernatants was measured using a MicroBeta Microplate Counter (PerkinElmer, Rodgau, Germany).

LNCaP cancer cells = type: cell-based, human; details: 48 h
Method: as §1

[1] = Dynamic PET imaging, tumor uptake in LNCaP xenografts; type: in vivo, mouse; details: male, BALB/c Nude, mouse, in vivo, iv, total radioactivity
Method: (§2) For PET experiments and as prostate cancer xenograft models, male PC3 and LNCaP tumor-bearing BALB/c Nude mice were used (body weight: 22−24 g, Charles River Laboratories, Saint-Constant, QC, Canada). To generate the tumor xenografts, about 5−6 × 10^6 PC3 cells in 100 μL of PBS or 20−25 × 10^6 LNCaP cells in 200 μL of PBS/Matrigel (50/50) were subcutaneously injected into the left shoulder of male BALB/c Nude mice. For the androgen-dependent LNCaP model, a 1.5 mg pellet containing dehydroepiandrosterone DHEA (60-day release; Innovative Research of America, Sarasota, FL, U.S.A.) was implanted subcutaneously into the upper right flank shortly before LNCaP cell injection. PC3 tumors and LNCaP tumors reached sizes of ∼300−500 mm^3 after 3−5 weeks and 6−8 weeks, respectively, and were used for the in vivo experiments. PET imaging of E5B9-^68Ga-NOTA-BBN2 monomeric and dimeric TMs was performed on an INVEON® PET/CT scanner (Siemens Preclinical Solutions, Knoxville, TN, USA). Prior to radiotracer injection, mice were anesthetized through inhalation of isoflurane in 40% oxygen/60% nitrogen (gas flow 1 L/min), and body temperature was kept constant at 37 °C. The mice were placed in a prone position in the center of the field of view. A transmission scan for attenuation correction was not acquired. Mice were injected with 4−8 MBq of E5B9-^68Ga-NOTA-BBN2 or E5B9-^68Ga-NOTA-(BBN2)2 in 150 μL 10% EtOH/saline solution through a tail vein catheter. For blocking studies, PC3- and LNCaP-tumor-bearing […] mice were pre-dosed i.v. with 300 μg of Ava-BBN2 (15 min prior to radiotracer injection) in 50 uL saline. Data acquisition was performed over 60 min in 3D list mode. The dynamic list mode data were sorted into sinograms with 54 time frames (10 × 2, 8 × 5, 6 × 10, 6 × 20, 8 × 60, 10 × 120, 6 × 300 s). The frames were reconstructed using maximum a posteriori (MAP) as the reconstruction mode. No correction for partial volume effects was applied. The image files were processed using the ROVER v2.0.51 software (ABX GmbH, Radeberg, Germany). […] ROIs covered all visible tumor mass of the subcutaneous tumors, and the thresholds were defined by 50% of the maximum radioactivity uptake level. Mean standardized uptake values [SUVmean = (activity/mL tissue)/(injected activity/body weight), […]] were calculated for each ROI, and time−activity curves (TACs) were generated. For each experimental group (different radiotracers and mouse tumor models as well as control and blocking experiments), n = 3–6 mice were measured. […] Blocking experiments were conducted in the same mice: first, a control scan was measured and then repeated 1–2 days after in the presence of a blocking concentration of 300 μg of Ava-BBN2. All semi-quantified PET data are presented as means ± SEM. […]

[2] = Dynamic PET imaging, tumor uptake in PC3 xenografts; type: in vivo, mouse; details: male, BALB/c Nude, mouse, in vivo, iv, total radioactivity
Method: as §2

PC3 tumors = experiment: as above; type: in vivo, mouse; details: PC3 tumors, pre-dosing i.v. with 300 µg Ava-BBN2 15 min before radiotracer, n = 3, p < 0.05
Method: as §2

[3] = competition against 125I-Tyr4-bombesin (0.05 nM) in PC3 cells, 2 h at 4 °C, triplicates, gamma counter, mean ± SEM, read-out: IC50 (competition binding to GRPR)

T1 sequence (P30550 whole entry): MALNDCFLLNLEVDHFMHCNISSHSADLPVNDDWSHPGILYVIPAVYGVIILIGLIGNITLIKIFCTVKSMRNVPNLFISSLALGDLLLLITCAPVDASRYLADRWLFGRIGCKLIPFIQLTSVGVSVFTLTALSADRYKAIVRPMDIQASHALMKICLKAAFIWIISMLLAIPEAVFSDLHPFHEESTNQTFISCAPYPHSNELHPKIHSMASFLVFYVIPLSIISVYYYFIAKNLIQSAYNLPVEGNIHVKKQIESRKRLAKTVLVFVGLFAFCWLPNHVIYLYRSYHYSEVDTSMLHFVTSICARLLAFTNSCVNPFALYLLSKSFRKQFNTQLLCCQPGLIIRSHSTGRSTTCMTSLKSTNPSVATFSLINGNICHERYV

Row | IC50 (GRPR; [3]) | SMILES | SUV at 1 h [1] | SUV at 1 h [2] | other results
1 | 0.7 ± 0.1 nM | CC[C@H](C)[C@@H](CCC(=O)N[C@H](C(N)=O)C(C)(C)C)NC(=O)[C@H](Cc1c[nH]cn1)NC(=O)CN(C)C(=O)[C@@H](NC(=O)[C@H](C)NC(=O)[C@H](Cc1c[nH]c2ccccc12)NC(=O)[C@H](CCC(N)=O)NC(=O)CCCCNC(=O)CC[C@H](NC(=O)[C@H](CCCCn1nnc2c1-c1ccccc1CN(C(=O)CCNC(=O)CCOCCOCCOCCOCCNC(=O)CCN1C(=O)CC(SC[C@H](NC(=O)[C@H](Cc3ccc(O)cc3)NC(=O)[C@H](CCC(=O)O)NC(=O)[C@H](CC(=O)O)NC(=O)[C@@H](NC(=O)[C@@H](NC(=O)[C@H](CCC(=O)O)NC(=O)[C@@H]3CCCN3C(=O)[C@H](CC(C)C)NC(=O)[C@@H]3CCCN3C(=O)[C@H](CCCCN)NC(=O)[C@@H](N)CO)C(C)C)[C@@H](C)O)C(=O)O)C1=O)c1ccccc1-2)NC(=O)CCCCNC(=S)Nc1ccc(C[C@H]2CN(CC(=O)O)CCN(CC(=O)O)CCN2CC(=O)O)cc1)C(=O)NCCCCC(=O)N[C@@H](CCC(N)=O)C(=O)N[C@@H](Cc1c[nH]c2ccccc12)C(=O)N[C@@H](C)C(=O)N[C@H](C(=O)N(C)CC(=O)N[C@@H](Cc1c[nH]cn1)C(=O)N[C@H](CCC(=O)N[C@H](C(N)=O)C(C)(C)C)[C@@H](C)CC)C(C)C)C(C)C (stereo partly shown) [E5B9-NOTA-(BBN2)2 TM] |  |  | 
2 | 190 ± 0.04 nM | CC[C@H](C)[C@@H](CCC(=O)N[C@H](C(N)=O)C(C)(C)C)NC(=O)[C@H](Cc1c[nH]cn1)NC(=O)CN(C)C(=O)[C@@H](NC(=O)[C@H](C)NC(=O)[C@H](Cc1c[nH]c2ccccc12)NC(=O)[C@H](CCC(N)=O)NC(=O)[C@H](CCCCn1nnc2c1-c1ccccc1CN(C(=O)CCNC(=O)CCOCCOCCOCCOCCNC(=O)CCN1C(=O)CC(SC[C@H](NC(=O)[C@H](Cc3ccc(O)cc3)NC(=O)[C@H](CCC(=O)O)NC(=O)[C@H](CC(=O)O)NC(=O)[C@@H](NC(=O)[C@@H](NC(=O)[C@H](CCC(=O)O)NC(=O)[C@@H]3CCCN3C(=O)[C@H](CC(C)C)NC(=O)[C@@H]3CCCN3C(=O)[C@H](CCCCN)NC(=O)[C@@H](N)CO)C(C)C)[C@@H](C)O)C(=O)O)C1=O)c1ccccc1-2)NC(=O)CCCCNC(=S)Nc1ccc(C[C@H]2CN(CC(=O)O)CCN(CC(=O)O)CCN2CC(=O)O)cc1)C(C)C (stereo partly drawn) [E5B9-NOTA-BBN2 TM] (I: H-SKPLPEVTDEYC-OH / II: {NOTA(2S-Bn(4-NHCS))-Ava}-[X1]QWAV[Sar]H[γ4hIle][Tle]-NH2; linker I:12-II:1 via X2) |  |  | EC50 (PC3 cancer cells): 32 nM; EC50 (LNCaP cancer cells): 29.8 nM
3 |  | CSCC[C@H](NC(=O)[C@H](CC(C)C)NC(=O)[C@H](Cc1c[nH]cn1)NC(=O)CNC(=O)[C@@H](NC(=O)[C@H](C)NC(=O)[C@H](Cc1c[nH]c2ccccc12)NC(=O)[C@H](Cc1c[nH]cn1)NC(=O)[C@H](CC(N)=O)NC(=O)CNC(=O)[C@H](CCCN=C(N)N)NC(=O)[C@@H]1CCCN1C(=O)[C@H](Cc1ccc(O)cc1)NC(=O)[C@H](CCSC)NC(=O)[C@H](CCCCN)NC(=O)[C@@H](NC(=O)[C@H](CC(C)C)NC(=O)[C@@H](NC(=O)[C@@H](NC(=O)CNC(=O)CNC(=O)CNC(=O)[C@H](C)NC(=O)[C@@H]1CCCN1C(=O)[C@H](CC(C)C)NC(=O)[C@@H]1CCCN1C(=O)[C@@H](N)C(C)C)[C@@H](C)O)C(C)C)[C@@H](C)O)C(C)C)C(N)=O [GRP, gastrin-releasing peptide, reference compound] |  |  | IC50 (GRPR): 0.15 ± 0.05 nM
4 |  | CC[C@H](C)[C@@H](CCC(=O)N[C@H](C(N)=O)C(C)(C)C)NC(=O)[C@H](Cc1c[nH]cn1)NC(=O)CN(C)C(=O)[C@@H](NC(=O)[C@H](C)NC(=O)[C@H](Cc1c[nH]c2ccccc12)NC(=O)[C@H](CCC(N)=O)NC(=O)CCCCNC(=S)Nc1ccc(C[C@H]2CN(CC(=O)O)CCN(CC(=O)O)CCN2CC(=O)O)cc1)C(C)C [^68Ga-NOTA-BBN2, metal not drawn, reference compound] ({NOTA(2S-Bn(4-NHCS))-Ava}-QWAV[Sar]H[γ4hIle][Tle]-NH2; N-terminus and C-terminus assumed) | 0.38 ± 0.02 SUV | 0.46 ± 0.05 SUV | 
5 |  | CC[C@H](C)[C@@H](CCC(=O)N[C@H](C(N)=O)C(C)(C)C)NC(=O)[C@H](Cc1c[nH]cn1)NC(=O)CN(C)C(=O)[C@@H](NC(=O)[C@H](C)NC(=O)[C@H](Cc1c[nH]c2ccccc12)NC(=O)[C@H](CCC(N)=O)NC(=O)[C@H](CCCCn1nnc2c1-c1ccccc1CN(C(=O)CCNC(=O)CCOCCOCCOCCOCCNC(=O)CCN1C(=O)CC(SC[C@H](NC(=O)[C@H](Cc3ccc(O)cc3)NC(=O)[C@H](CCC(=O)O)NC(=O)[C@H](CC(=O)O)NC(=O)[C@@H](NC(=O)[C@@H](NC(=O)[C@H](CCC(=O)O)NC(=O)[C@@H]3CCCN3C(=O)[C@H](CC(C)C)NC(=O)[C@@H]3CCCN3C(=O)[C@H](CCCCN)NC(=O)[C@@H](N)CO)C(C)C)[C@@H](C)O)C(=O)O)C1=O)c1ccccc1-2)NC(=O)CCCCNC(=S)Nc1ccc(C[C@H]2CN(CC(=O)O)CCN(CC(=O)O)CCN2CC(=O)O)cc1)C(C)C (stereo partly drawn) [monomeric ^68Ga-BBN2 TM, metal not drawn] (I: H-SKPLPEVTDEYC-OH / II: {NOTA(2S-Bn(4-NHCS))-Ava}-[X1]QWAV[Sar]H[γ4hIle][Tle]-NH2; linker I:12-II:1 via X2) | 0.44 ± 0.11 SUV | 0.44 ± 0.01 SUV | in vivo blocking of tumor uptake (PC3 tumors): 39 ± 9%
